# Measured values: patent US12037324B2, “Biarylmethyl heterocycles” (Université de Montréal, priority 2016, dated 2024)
# pEC50: −log10 of the molar value. Where two headings read alike, the source gives them in different places.
# Columns and labels:
# hAT1R [1] = target: T1, hAT1R (Homo sapiens, UniProt P30556); test: cell-based
# T1 sequence (P30556 1-359): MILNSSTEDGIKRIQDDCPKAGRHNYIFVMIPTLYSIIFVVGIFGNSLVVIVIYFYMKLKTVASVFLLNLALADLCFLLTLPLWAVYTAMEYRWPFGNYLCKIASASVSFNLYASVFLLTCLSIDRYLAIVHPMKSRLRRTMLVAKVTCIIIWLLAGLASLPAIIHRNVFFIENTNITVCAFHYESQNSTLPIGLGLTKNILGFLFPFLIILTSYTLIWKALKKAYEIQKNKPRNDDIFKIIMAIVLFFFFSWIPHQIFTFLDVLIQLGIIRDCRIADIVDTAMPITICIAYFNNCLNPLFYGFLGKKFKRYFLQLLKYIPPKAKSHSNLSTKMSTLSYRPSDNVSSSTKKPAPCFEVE
# hAT1R [2] = target: T1, hAT1R; test: cell-based; details: agonist mode; for pEC50: read-out: BRET P63 EC50
# AGTR1 [3] = target: T2, AGTR1 (Homo sapiens, UniProt P30556); test: DiscoveRx β-arrestin2 recruitment assay (enzyme complementation, Pathunter CHO-K1 AGTR1 β-arrestin cell line); format: cell-based; details: DiscoveRx β-arrestin2 recruitment; for DiscoveRx β-arrestin2 Ymax (%): maximal response
# T2 construct: host or cells: Pathunter CHO-K1 AGTR1 β-arrestin cell line (CHO-K1)
# T2 sequence (P30556 1-359): T1 sequence (P30556 1-359)
# Outline: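 Chemiluminescent enzyme-complementation read-out of β-arrestin2 recruitment to AGTR1 in engineered CHO-K1 cells after 90 min compound exposure at 37° C. Values are 4-parameter logistic EC50s in agonist mode, IC50s in antagonist mode, with efficacy relative to the maximal All response.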
# AGTR1 [4] = target: T2, AGTR1; test: DiscoveRx IP1 accumulation assay (HTRF), agonist mode, Pathunter CHO-K1 AGTR1 β-arrestin cell line; format: cell-based; details: for pEC50: read-out: IP-1 EC50
# Outline: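 Agonist mode in CHO-K1 AGTR1 β-arrestin cells plated 14-16 h before; compounds at varying concentrations for 90 min at 37° C, IP1 accumulation read by HTRF (D2-conjugate and anti-IP1 cryptate, 20 min room temperature). EC50 from 4-parameter logistic fit; activity given as percentage of maximal AII effect.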
# [5] = section of the 42nd table ending at r951, example numbering restarts after the DiscoveRx section, read-out: β-arrestin2 EC50
# [6] = Low AT1R Expression, read-out: BRET β-Arrestin2 Low AT1R Expression EC50
Compound,pEC50 (hAT1R [1]; [5]),BRET P63 Ymax (hAT1R [2]) [%],pEC50 (hAT1R [2]),pEC50 (AGTR1 [3]),DiscoveRx β-arrestin2 Ymax (%) (AGTR1 [3]),IP-1 Ymax (%) (AGTR1 [4]),pEC50 (AGTR1 [4]),BRET β-Arrestin2 Low AT1R Expression Ymax (%) (hAT1R [1]; Low AT1R Expression),pEC50 (hAT1R [1]; [6])
"CCc1nc2c(C)cc(C)nc2n1Cc1ncc(-c2cc(-c3cccc(C)c3)ccc2-c2nnn[nH]2)cn1 [Example 188, 2-ethyl-5,7-dimethyl-3-((5-(3′-methyl-4-(1H-tetrazol-5-yl)biphenyl-3-yl)pyrimidin-2-yl)methyl)-3H-imidazo[4,5-b]pyridine]",7.61,17.2,7.48,7.38,53.3,24.2,6.76,,
CCc1nc2c(C)cc(C)nc2n1Cc1ccc(-c2cc(-n3ccc(C)n3)ccc2-c2nnn[nH]2)cc1 [Example 218],< 5.00,,< 5.00,7.34,21.5,4.6,7.48,,
"CCC1=NC2(CCOC2)C(=O)N1Cc1ccc(-c2cc(-c3cccc(C)c3)ccc2-c2nnn[nH]2)cc1 (single isomer, unassigned) [Example 166]",7.19,22.7,7.19,7.64,47.5,14.8,6.99,,
"CCCC1=NC2(CCOC2)C(=O)N1Cc1ccc(-c2cc(-c3ccccc3O)ccc2-c2nnn[nH]2)cc1 (single isomer, unassigned) [Example 160]",7.01,18.6,7.10,7.06,50.2,15.8,6.88,,
"CCCC1=NC2(CCOC2)C(=O)N1Cc1ccc(-c2cc(-c3ccccc3)ccc2-c2nnn[nH]2)cc1 (single isomer, unassigned) [Example 162]",6.43,,< 5.00,6.83,31.9,8.9,6.63,,
"CCCCC1=NC2(CCOCC2)C(=O)N1Cc1ccc(-c2cc(-c3cc(C)ccn3)ccc2-c2nn[nH]n2)cc1 [Example 171, 2-butyl-3-((5′-(4-methylpyridin-2-yl)-2′-(2H-tetrazol-5-yl)-[1,1′-biphenyl]-4-yl)methyl)-8-oxa-1,3-diazaspiro[4.5]dec-1-en-4-one]",7.16,20.1,7.51,7.47,38.6,68.1,5.09,,
"CCC1=NC2(CCOC2)C(=O)N1Cc1ccc(-c2cc(-c3ccccc3O)ccc2-c2nnn[nH]2)cc1 (single isomer, unassigned) [Example 170]",6.23,13.5,6.20,6.77,63.4,13.2,6.33,,
"CCc1nc2c(C)cc(C)nc2n1Cc1ccc(-c2cc(-n3ncc4ccccc43)ccc2-c2nnn[nH]2)cc1 [Example 215, 3-((5′-(1H-Indazol-1-yl)-2′-(1H-tetrazol-5-yl)-[1,1′-biphenyl]-4-yl)methyl)-2-ethyl-5,7-dimethyl-3H-imidazo[4,5-b]pyridine]",8.39,22.7,8.40,8.29,46.1,17.3,7.75,,
CCc1nc2c(C)cc(C)nc2n1Cc1ccc(-c2cc(-c3cn(CCF)nn3)ccc2-c2nnn[nH]2)cc1 [Example 239],8.05,44.3,7.78,8.27,59.1,34.2,7.51,,
"CCCC1=NC2(CCOC2)C(=O)N1Cc1ccc(-c2cc(-c3ccccc3F)ccc2-c2nnn[nH]2)cc1 (single isomer, unassigned) [Example 161]",7.33,10.9,7.30,7.05,40.7,14.2,6.69,,
"Cc1ccnc(-c2ccc(-c3nn[nH]n3)c(-c3ccc(CN4C(=O)C5(CCCC5)N=C4C4CC4)cc3)c2)c1 [Example 120, 2-cyclopropyl-3-((5′-(4-methylpyridin-2-yl)-2′-(2H-tetrazol-5-yl)-[1,1′-biphenyl]-4-yl)methyl)-1,3-diazaspiro[4.4]non-1-en-4-one]",,17.8,7.74,7.90,44.5,20.7,7.12,50.1,7.46
CCc1nc2c(C)cc(C)nc2n1Cc1ccc(-c2cc(-c3ccccc3)ccc2C(=O)NS(C)(=O)=O)cc1 [Example 244],6.95,15.3,7.16,7.02,34.7,11.0,6.70,,
CCc1nc2c(C)cc(C)nc2n1Cc1ccc(-c2cc(-c3cc(C)c(F)cn3)ccc2-c2nn[nH]n2)cc1 [Example 66],,,< 5.00,8.24,25.8,6.9,8.07,39.4,7.78
"CCCCC1=NC2(CCOC2)C(=O)N1Cc1ccc(-c2cc(-c3cccc(C)c3)ccc2-c2nnn[nH]2)cc1 (single isomer, unassigned) [Example 153]",7.27,,< 4.00,7.54,19.6,6.0,6.64,,
"CC1=NC2(CCCC2)C(=O)N1Cc1ccc(-c2cc(-c3cc(C)ccn3)ccc2-c2nn[nH]n2)cc1 [Example 111, 2-methyl-3-((5′-(4-methylpyridin-2-yl)-2′-(2H-tetrazol-5-yl)-[1,1′-biphenyl]-4-yl)methyl)-1,3-diazaspiro[4.4]non-1-en-4-one]",,24.1,7.65,8.19,63.3,15.7,7.90,80.7,7.83
"CCc1nc2c(C)cc(C)nc2n1Cc1ccc(-c2cc(-n3cc4ccccc4n3)ccc2-c2nnn[nH]2)cc1 [Example 216, 3-((5′-(2H-Indazol-2-yl)-2′-(1H-tetrazol-5-yl)-[1,1′-biphenyl]-4-yl)methyl)-2-ethyl-5,7-dimethyl-3H-imidazo[4,5-b]pyridine]",8.18,10.1,8.74,8.02,33.4,10.6,7.54,,
CCc1nc2c(C)cc(C)nc2n1Cc1ccc(-c2cc(Oc3cccnc3F)ccc2-c2nn[nH]n2)cc1 [Example 262],7.84,14.4,7.95,7.70,50.8,8.6,7.42,,
